The values below are quoted from earlier work in US20080102106A1, “Wound Healing Composition Comprising Substances From Diptera Larvae” (ALPHA-BIOCARE GMBH, priority 2005, published 2008).

The conditions of the data set: many cases of use in humans, dermatological studies.
As to `NC(=O)NC1NC(=O)NC1=O` (stereo not drawn) [allantoin], the wound healing effect entry is listed as “do not have any wound healing effect”.
With `N` [ammonium], the wound healing effect result was “do not have any wound healing effect”.
With `NC(N)=O` [urea], the wound healing effect result is “do not have any wound healing effect”.
